# Test results from patent US20140213502A1, “CHEMICAL MODIFICATION OF APOLIPOPROTEIN MIMETIC PEPTIDES FOR THE PRODUCTION OF THERAPEUTIC AGENTS” (United States Department of Health and Human Services, priority 2011, published 2014).
# Like-named read-outs stand apart in the source and are kept apart here. Bridge positions count the residues as written; N and C are the ends. Square brackets hold non-standard residues; d marks the D form. Ends that are not written are not given here. Peptide text beside a SMILES is read from it. * marks the point of attachment. Myristoyl = CCCCCCCCCCCCCC(=O)*; R8 = C=CCCCCCC[C@@](C)(N)C(=O)O; S5 = C=CCCC[C@](C)(N)C(=O)O
# What was measured:
# [1] = Helicity by circular dichroism (CD) spectroscopy; format: physicochemical; settings: for helical (helicity by CD spectroscopy): 24° C., aqueous buffer (sodium phosphate pH 7.4), peptide 0.1 mg/mL; for Helicity at 90° C.: heat denaturation, CD spectroscopy
# Protocol: FIG. 1 depicts the primary sequence and information regarding the biophysical characterization of illustrative peptides discussed herein. […] X1=(R)-a-(7′-octanyl)Ala; X2=(S)-a-(4′ pentenyl)Ala. […] (dotted line) A10, (solid line) S1A10, (dashed line) S2A10.
# FIG. 5 depicts helicity of peptides as measured by CD-spectroscopy at 24° C.: (dotted line) 5A, (dashed line) acyl-5A.
# The helical nature of the peptides was determined by circular dichroism spectroscopy. Peptides (0.1 mg/mL) in sodium phosphate buffer (pH 7.4) were loaded into a quartz cuvette (d=0.2 cm path length) and CD spectra from 185 to 240 nm were recorded on a Jasco J715 spectropolarimeter at 24° C. Data were normalized by calculating the mean residue ellipticity (θ). Peptide thermostability was monitored at 220 nm by increasing temperature from 10° to 90° C.
# pepsin = experiment: Susceptibility to proteolysis by pepsin, loss of intact peptide by MALDI-TOF MS; format: in vitro ADME; settings: for remaining at 24 h, 500 μg/ml: pepsin (isolated protease), pepsin 0.5 μg/ml, pH 2, 37° C., read-out: peptide remaining after digestion
# Protocol: (§1) FIG. 2 depicts information relating to peptide susceptibility to proteolysis. Peptides […] and […] at a final concentration of 500 μg/ml were incubated for the indicated times with either pepsin (0.5 μg/ml) in 10% acetic acid (pH 2.0) buffer (Panel A) or with chymotrypsin (0.5 μg/ml) in 10 mM NH4HCO3 (pH 7.4) buffer (Panel B), and loss of intact peptide was monitored by MALDI-TOF MS. Results are expressed as normalized area under the curve measurements relative to three internal standards. […] Several potential pepsin and/or chymotrypsin cleavage sites are found within and outside the linker region of the peptides […] and […]. […] and […] (5 mg/ml) were diluted 10× with either 10% acetic acid (pH 2), containing pepsin (0.5 μg/ml final) or in 10 mM NH4HCO3 (pH 7), containing chymotrypsin (0.5 μg/ml final). After incubation at 37° C., aliquots at various time points were removed and dried on a MALDI Anchor Chip target at 45° C. MALDI standards (Bombesin, ACTH 1-17, ACTH 18-39, Somastatin 28, CHCA in 50% ACN, 0.1% TFA) and matrix were added sequentially and allowed to dry between additions. Samples were analyzed on a Bruker AutoFlex III (Bruker Daltonics) in positive ion reflectron mode. Relative protein concentrations were determined from areas under the curve, using the MALDI standards as calibrators.
# chymotrypsin = experiment: Susceptibility to proteolysis by chymotrypsin, loss of intact peptide by MALDI-TOF MS; format: in vitro ADME; settings: for remaining at 24 h, 500 μg/ml: chymotrypsin (isolated protease), read-out: peptide remaining after digestion
# Protocol: as §1
# aortic atherosclerosis = experiment: Atherosclerosis progression in a mouse model, en face analysis of aorta; format: in vivo; settings: apoE^hypx SR-BI Ko mice, 200 ug/mL in drinking water, high fat (21%) diet 2 weeks
# Protocol: FIG. 8 depicts the results of testing the peptide […] on atherosclerosis progression in a mouse model of atherosclerosis. To test the ability of the stapled peptide variant of the last helix of apoA-T containing the long linker, […], it was added to the drinking water (200 ug/mL) of apoE^hypx SR-BI Ko mice. The mice were fed a high fat (21%) diet for 2-weeks and examined for aortic atherosclerosis by en face analysis.
# [2] = format: physicochemical
# Protocol: FIG. 3 depicts Dimyristoyl phosphatidyl choline (DMPC) vesicle solubilization by the indicated peptides. Peptides A10, S1A10 and S2A10 at a final concentration of 33 μg/mL or phosphate buffer saline (PBS) was incubated with DMPC vehicles (200 μg/mL) and monitored for turbidity at 1 min. intervals.
# A phospholipid vesicle solubilization assay was undertaken to assess the ability of the peptides to act like detergents. Dimyristoyl phosphatidyl choline (DMPC) vesicles were prepared by resuspension of dried DMPC with PBS and vortexing for 5 min. Changes in light scattering upon peptide addition were monitored at 24° C. every minute for 1 h at 660 nm, with shaking in a Perkin Elmer plate reader.
# ABCA1 transporter = biological target: T1, ABCA1 transporter (Homo sapiens, UniProt O95477); experiment: Cholesterol efflux, BHK cells stably transfected with human ABCA1; format: cell-based; settings: 18 h
# T1 construct: expressed in transfected cells; host or cells: BHK cells
# Protocol: (§2) FIG. 4 depicts the results of testing the effect of the peptides on cholesterol efflux. Peptides A10, S1A10, S2A10, 5A at the indicated concentration were incubated with (Panel A) BHK control cells, (Panel B) ABC-A1 transfected BHK cells, (Panel C) ABC-G1 transfected BHK cells, and (Panel D) SR-B1 transfected BHK cells and monitored for cholesterol efflux. Percent of cholesterol efflux over 18 h is expressed as mean±SD of triplicate determinations.
# (§3) The ability of the three peptides and the bi-helical 5A peptide to promote cholesterol efflux was tested on BHK cells stably transfected with human ABCA1, ABCG1 or the human SRBI receptor (FIGS. 5 and 6). Cholesterol efflux studies were performed, as described previously. Control BHK cells and BHK cells stably transfected with either human ABCA1, ABCG1 or SR-BI were radiolabeled with [^3H] cholesterol for 24 h, washed and then treated with the indicated concentration of peptides for 18 h. Percent efflux was calculated by subtracting the radioactive counts in blank medium (alpha-minimal essential media plus 10 μg/ml bovine serum albumin) from the radioactive counts in the presence of a peptide and then dividing the result by the sum of the radioactive counts in the medium plus the cell fraction.
# ABCG1 transporter = biological target: T2, ABCG1 transporter (Homo sapiens, UniProt P45844); experiment: Cholesterol efflux, ABCG1 transfected BHK cells; format: cell-based; settings: 18 h, no phospholipid reconstitution
# T2 construct: expressed in transfected cells; host or cells: BHK cells
# Protocol: as §2, §3
# SR-BI receptor = biological target: T3, SR-BI receptor (Homo sapiens, UniProt Q8WTV0); experiment: Cholesterol efflux, SR-BI transfected BHK cells; format: cell-based; settings: 18 h, no phospholipid reconstitution
# T3 construct: expressed in transfected cells; host or cells: BHK cells
# T3 sequence (Q8WTV0 1-552): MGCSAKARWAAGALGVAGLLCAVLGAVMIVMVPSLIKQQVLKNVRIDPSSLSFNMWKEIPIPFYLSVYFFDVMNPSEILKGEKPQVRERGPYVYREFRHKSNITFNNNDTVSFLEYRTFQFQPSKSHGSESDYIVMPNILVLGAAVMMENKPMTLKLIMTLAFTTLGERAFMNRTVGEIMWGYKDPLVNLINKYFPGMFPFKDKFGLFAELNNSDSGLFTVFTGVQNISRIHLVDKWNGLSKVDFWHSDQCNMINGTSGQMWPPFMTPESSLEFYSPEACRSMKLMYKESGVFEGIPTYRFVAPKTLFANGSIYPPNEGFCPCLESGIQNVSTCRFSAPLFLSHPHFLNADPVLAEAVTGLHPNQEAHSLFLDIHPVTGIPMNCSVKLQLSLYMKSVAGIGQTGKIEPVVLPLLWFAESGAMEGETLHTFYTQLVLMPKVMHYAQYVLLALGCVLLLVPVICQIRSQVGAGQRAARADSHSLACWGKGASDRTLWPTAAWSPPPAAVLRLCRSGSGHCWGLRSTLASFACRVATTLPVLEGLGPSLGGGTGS
# Protocol: as §2, §3
# [3] = cited from earlier work
# [4] = Effect of acyl-5A on serum lipid profile of mice; format: in vivo; settings: CS7BL/6 mice, 30 mg/kg intravenously in saline, relative to baseline
# Protocol: FIG. 7 depicts the results of testing acyl-5A on scrum lipid values in mice. Acyl-5A was injected intravenously in CS7BL/6 mice (n=4) at a dose of 30 mg/kg in saline, and serum was measured for total cholesterol (Panel A), cholesteryl esters (Panel B), and free cholesterol (Panel C) at the indicated, time points. Mean of results are expressed as % of baseline.
# In FIG. 7, the results of testing the effect of acyl-5A on the serum lipid profile of mice are shown.
# [5] = Oligomer formation in aqueous solution; format: physicochemical
# [6] = chymotrypsin 0.5 μg/ml, 10 mM NH4HCO3 (pH 7), 37° C.
# T1 sequence (O95477 whole entry): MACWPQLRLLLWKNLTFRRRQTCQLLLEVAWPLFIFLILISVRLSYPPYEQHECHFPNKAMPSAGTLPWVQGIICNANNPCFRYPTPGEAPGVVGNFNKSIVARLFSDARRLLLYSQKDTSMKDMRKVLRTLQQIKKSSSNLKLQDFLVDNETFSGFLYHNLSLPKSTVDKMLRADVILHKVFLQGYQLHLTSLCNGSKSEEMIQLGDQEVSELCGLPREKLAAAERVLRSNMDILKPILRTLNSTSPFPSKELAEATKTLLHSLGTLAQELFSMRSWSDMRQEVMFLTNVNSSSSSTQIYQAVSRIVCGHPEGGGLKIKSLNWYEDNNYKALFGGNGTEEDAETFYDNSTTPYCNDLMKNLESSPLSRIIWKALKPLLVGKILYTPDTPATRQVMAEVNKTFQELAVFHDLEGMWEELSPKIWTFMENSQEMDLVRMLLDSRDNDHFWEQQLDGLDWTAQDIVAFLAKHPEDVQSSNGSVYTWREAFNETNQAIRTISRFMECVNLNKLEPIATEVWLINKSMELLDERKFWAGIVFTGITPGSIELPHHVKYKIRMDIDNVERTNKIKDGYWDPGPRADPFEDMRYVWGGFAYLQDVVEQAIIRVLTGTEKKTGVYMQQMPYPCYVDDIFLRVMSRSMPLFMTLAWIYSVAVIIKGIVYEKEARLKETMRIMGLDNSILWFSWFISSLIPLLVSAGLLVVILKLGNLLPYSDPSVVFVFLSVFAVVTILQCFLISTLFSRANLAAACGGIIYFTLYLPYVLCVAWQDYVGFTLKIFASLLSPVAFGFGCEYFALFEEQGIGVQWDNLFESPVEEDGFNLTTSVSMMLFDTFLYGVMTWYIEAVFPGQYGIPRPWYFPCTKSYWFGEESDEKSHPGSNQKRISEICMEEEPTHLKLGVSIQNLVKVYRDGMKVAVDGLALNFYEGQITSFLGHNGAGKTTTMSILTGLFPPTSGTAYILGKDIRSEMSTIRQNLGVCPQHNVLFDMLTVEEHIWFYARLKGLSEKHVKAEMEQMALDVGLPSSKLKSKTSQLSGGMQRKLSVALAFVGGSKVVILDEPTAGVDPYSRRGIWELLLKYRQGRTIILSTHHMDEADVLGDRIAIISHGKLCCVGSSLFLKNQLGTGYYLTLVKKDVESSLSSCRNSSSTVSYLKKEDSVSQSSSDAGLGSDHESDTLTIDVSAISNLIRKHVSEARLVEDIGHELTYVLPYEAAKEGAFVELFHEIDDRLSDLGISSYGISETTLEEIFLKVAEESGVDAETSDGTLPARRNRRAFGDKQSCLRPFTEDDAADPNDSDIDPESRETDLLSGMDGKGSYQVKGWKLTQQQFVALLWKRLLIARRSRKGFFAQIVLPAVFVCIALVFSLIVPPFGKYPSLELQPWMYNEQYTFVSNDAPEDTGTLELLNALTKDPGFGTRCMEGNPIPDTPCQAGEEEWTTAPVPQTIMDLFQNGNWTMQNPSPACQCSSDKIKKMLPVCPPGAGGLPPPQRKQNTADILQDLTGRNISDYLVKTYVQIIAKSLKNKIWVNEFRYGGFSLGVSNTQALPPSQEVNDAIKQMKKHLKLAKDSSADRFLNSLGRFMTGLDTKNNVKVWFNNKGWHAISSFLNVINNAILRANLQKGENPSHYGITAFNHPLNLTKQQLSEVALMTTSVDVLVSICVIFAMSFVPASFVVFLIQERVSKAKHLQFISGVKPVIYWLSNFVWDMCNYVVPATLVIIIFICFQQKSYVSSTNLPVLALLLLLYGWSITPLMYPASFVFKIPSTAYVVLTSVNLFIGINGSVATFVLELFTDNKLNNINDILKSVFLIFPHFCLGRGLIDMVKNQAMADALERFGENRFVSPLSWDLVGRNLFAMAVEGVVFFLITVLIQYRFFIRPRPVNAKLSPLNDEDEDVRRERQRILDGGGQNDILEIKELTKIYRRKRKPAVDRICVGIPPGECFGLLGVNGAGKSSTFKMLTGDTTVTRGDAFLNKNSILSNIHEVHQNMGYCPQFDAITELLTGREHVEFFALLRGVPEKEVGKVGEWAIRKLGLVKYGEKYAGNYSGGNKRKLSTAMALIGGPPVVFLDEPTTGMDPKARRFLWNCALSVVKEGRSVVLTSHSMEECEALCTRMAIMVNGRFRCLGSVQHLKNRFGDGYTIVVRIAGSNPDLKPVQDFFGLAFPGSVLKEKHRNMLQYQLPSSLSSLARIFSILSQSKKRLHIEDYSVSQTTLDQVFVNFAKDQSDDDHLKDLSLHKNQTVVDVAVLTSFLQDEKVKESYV
compound,measurement,setting,value
CC(=O)N[C@H](C(=O)N[C@@H](CC(C)C)C(=O)N[C@@H](CCC(=O)O)C(=O)N[C@@H](CO)C(=O)N[C@@H](Cc1ccccc1)C(=O)N[C@@H](CCCCN)C(=O)N[C@H](C(=O)N[C@@H](CO)C(=O)N[C@]1(C)CCCCCCC=CCCCCCC[C@](C)(C(=O)N[C@@H](CCC(=O)O)C(=O)N[C@@H](CCC(=O)O)C(=O)N[C@@H](Cc2ccc(O)cc2)C(=O)N[C@H](C(=O)N[C@@H](CCCCN)C(=O)N[C@@H](CCCCN)C(=O)N[C@@H](CC(C)C)C(=O)N[C@@H](CC(N)=O)C(=O)N[C@H](C(=O)N[C@@H](CCC(N)=O)C(N)=O)[C@@H](C)O)[C@@H](C)O)NC(=O)[C@H](C)NC(=O)[C@H](CO)NC(=O)[C@H](CC(C)C)NC1=O)C(C)C)C(C)C [S1A10] (Ac-VLESFKVS[R8]LSA[R8]EEYTKKLNTQ-NH2; staple 9-13; N-terminus and C-terminus assumed),helical (helicity by CD spectroscopy),[1],62%
same,Helicity at 90° C.,[1],25%
same,"remaining at 24 h, 500 μg/ml",pepsin,0.4%
same,"remaining at 24 h, 500 μg/ml",chymotrypsin; [6],0.6%
CC(=O)N[C@H](C(=O)N[C@@H](CC(C)C)C(=O)N[C@@H](CCC(=O)O)C(=O)N[C@@H](CO)C(=O)N[C@@H](Cc1ccccc1)C(=O)N[C@@H](CCCCN)C(=O)N[C@H](C(=O)N[C@@H](CO)C(=O)N[C@@]1(C)CCCC=CCCCCCC[C@](C)(C(=O)N[C@H](C(=O)N[C@@H](CCCCN)C(=O)N[C@@H](CCCCN)C(=O)N[C@@H](CC(C)C)C(=O)N[C@@H](CC(N)=O)C(=O)N[C@H](C(=O)N[C@@H](CCC(N)=O)C(N)=O)[C@@H](C)O)[C@@H](C)O)NC(=O)[C@H](CCC(=O)O)NC(=O)[C@H](CCC(=O)O)NC(=O)[C@H](CC(C)C)NC(=O)[C@H](C)NC(=O)[C@H](CO)NC(=O)[C@H](CC(C)C)NC1=O)C(C)C)C(C)C [S2A10] (Ac-VLESFKVS[S5]LSALEE[R8]TKKLNTQ-NH2; staple 9-16; N-terminus and C-terminus assumed),helical (helicity by CD spectroscopy),[1],97%
same,Helicity at 90° C.,[1],48%
same,"remaining at 24 h, 500 μg/ml",pepsin,12.2%
same,resistance to proteolysis by chymotrypsin (in words),chymotrypsin; [6],less sensitive to chymotrypsin than S1A10
same,"remaining at 24 h, 500 μg/ml",chymotrypsin; [6],3.8%
same,decrease in % area coverage by atherosclerotic plaques,aortic atherosclerosis,> 2 fold
"Ac-VLESFKVSFLSALEEYTKKLNTQ-NH2 [A10, reference compound]",helical (helicity by CD spectroscopy),[1],17%
same,Helicity at 90° C.,[1],11%
same,"remaining at 0.5 h, 500 μg/ml","pepsin; isolated enzyme pepsin, pH 2",< 5%
same,"remaining at 0.5 h, 500 μg/ml","chymotrypsin; isolated enzyme chymotrypsin, pH 7",< 5%
same,"DMPC vesicle solubilization (turbidity, in words)",[2],"some initial solubilization of the DMPC vesicles, but at later time points, the turbidity of the solution increased"
same,cholesterol efflux by the ABCA1 transporter (in words),ABCA1 transporter,ineffective
same,cholesterol efflux (in words),ABCG1 transporter,ineffective
same,cholesterol efflux (in words),SR-BI receptor,ineffective
apoA-I: the main protein in High Density Lipoprotein (HDL),helical,[3]; associated with lipids,over 80%
same,helical,[3]; lipid-free state,about 20%
myrstic acid GGGDWLKAFYDKVAEKLKEAFPDWAKAAYDKAAEKAKEAA (Myristoyl-GGGDWLKAFYDKVAEKLKEAFPDWAKAAYDKAAEKAKEAA) [acyl-5A],helical (helicity by CD spectroscopy),[1],36.7%
same,increase in serum total cholesterol,[4],approximately 20%
same,increase in serum free cholesterol,[4]; found primarily on HDL,> 2 fold
same,peptides per complex (oligomer),[5],approximately 10 peptides per complex
